In patent US20220380473A1, “ANTI-GAL3 ANTIBODIES AND USES THEREOF” (TrueBinding, Inc., priority 2019, published 2022):

Experiments:
Gal9 binding to TIM-3 = target: T1, Gal9 binding to TIM-3 (Homo sapiens, UniProt O00182); assay: Sugar-dependence ELISA, hGal9 coated plate and mouse TIM-3 Fc
T1 construct: purchased R&D systems

[1] = target: T2, interaction between Gal3 and TIM-3 (Mus musculus, UniProt P16110); assay: Blocking ELISA, mouse Gal3 coated plate and mouse TIM-3 Fc; format: binding; details: mGal3 coated plate, mouse TIM-3 Fc
T2 construct: purchased BioLegend (mouse Gal3); R&D systems (mouse TIM-3 Fc)
T2 sequence (P16110 2-264 limits assumed): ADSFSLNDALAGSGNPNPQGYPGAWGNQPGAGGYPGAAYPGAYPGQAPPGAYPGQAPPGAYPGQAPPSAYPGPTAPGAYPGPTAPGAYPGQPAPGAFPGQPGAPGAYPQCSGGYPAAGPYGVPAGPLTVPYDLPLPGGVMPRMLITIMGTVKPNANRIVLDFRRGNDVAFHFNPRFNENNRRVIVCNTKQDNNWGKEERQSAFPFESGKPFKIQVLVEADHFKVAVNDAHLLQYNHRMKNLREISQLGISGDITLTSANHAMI
Experimental: ELISA assays were also performed to test the interaction between Gal3 and TIM-3. 96 well ELISA plates (ThermoFisher Scientific) were coated with mouse Gal3 protein (BioLegend, San Diego, Calif.) in PBS or human Gal9 protein (R&D systems) in PBS or phosphatidylserine (PS) (Sigma) in ethanol and incubated at 4° C. for overnight. The plate was washed three times with TBST and then blocked with PBS buffer containing 2% BSA at room temperature for 1 hour. In FIG. 5A, different anti Gal3 antibodies, i.e. mGal3 polyclonal antibody (R&D systems), mAb IMT001 (also described in WO 2019/023247, hereby expressly incorporated by reference in its entirety), mAb M3/38 (Thermofisher Scientific) (FIG. 5A), were added to well that has been coated with Gal3. The antibodies were incubated for 10 minutes and mouse TIM-3 Fc were then added to the plates and incubated for an additional one-hour incubation. Plates were then washed for three times and followed by incubation with anti-human-IgG-HRP (Jackson ImmunoResearch) for 1 h at room temperature. The color was developed with TMB subtract (GeneTex, Irvine, Calif.) after three time washes with TBST and the reaction was terminated with 1N HCl. The optical density (OD) was read at 450 nm. The results were expressed as the average OD of duplicates±SD. […]

T1 sequence (O00182 whole entry): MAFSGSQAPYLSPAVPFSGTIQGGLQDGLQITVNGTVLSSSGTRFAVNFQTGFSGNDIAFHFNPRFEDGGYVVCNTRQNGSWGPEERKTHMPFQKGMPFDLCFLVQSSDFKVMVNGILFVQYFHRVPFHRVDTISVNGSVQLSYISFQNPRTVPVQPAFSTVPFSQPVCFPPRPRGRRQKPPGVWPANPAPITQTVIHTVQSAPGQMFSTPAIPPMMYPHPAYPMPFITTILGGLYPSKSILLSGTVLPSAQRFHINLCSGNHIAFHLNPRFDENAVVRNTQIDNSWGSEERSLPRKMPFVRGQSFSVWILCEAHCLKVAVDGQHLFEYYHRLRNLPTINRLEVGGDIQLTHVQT

OC[C@H]1O[C@@H](O[C@H]2[C@H](O)[C@@H](O)[C@@H](O)O[C@@H]2CO)[C@H](O)[C@@H](O)[C@H]1O [lactose, α-Lactose, reference compound]
reduction in signal, Gal9-TIM-3 binding (Gal9 binding to TIM-3; 25 mM α-Lactose present vs absent): more than 10 fold
block of Gal9 binding to TIM-3 (Gal9 binding to TIM-3; 25 mM α-Lactose, hGal9 coated plate): blocked
block of Gal3 binding to TIM-3 [1]: minimal
